From patent publication US10959966B2, “Compositions and methods for modulating HEXM1 expression” (CASE WESTERN RESERVE UNIVERSITY, priority 2014, dated 2021) come the findings set out here.

The test system of this assay is HEXIM1 targets in MCF7 cells. The assay can be described thus: Western blot of HEXIM1 targets in MCF7 cells. The class given is cell-based. As to conditions: 5 mM HMBA or 50 uM 4a1, 18 h, relative to GAPDH. As for the experimental part:
FIG. 10 illustrates a Western blot of MCF7 cells treated with vehicle, 5 mM HMBA, or 50 uM 4a1 for 18 h, and processes for analyses of HEXIM1 targets relative to GAPDH.
Cell lysates were analyzed by western blot as previously described. Anti-HEXIM1 was generated in the Montano laboratory. Primary antibodies against p21 (C-19; cat# sc-397), cyclin D1 (HD11; cat# sc-246) and myc (9E10; cat# sc-40) were obtained from Santa Cruz Biotechnology. Anti-GAPDH was obtained from Millipore. Anti-HIF-1α was obtained from Oxy-cell, Bioresearch).
To assess the clinical potential of HMBA and 4a1 we need to determine to what extent the targets of HMBA and 4a1 overlap with that of HEXIM1. We focused on direct targets of HEXIM1 that we have identified.

SMILES strings stand for the structures.

With `COc1ccc(CC(=O)NCCCCCCNC(C)=O)cc1` [Compound 4a1], the “Expression of proteins directly regulated by HEXIM1” value is listed as “regulated expression of proteins”.
